Source: paper PMC3595096 (Biochemistry, 2012)
pEC50: −log10 of the molar value. “And” between values parts separate entries of the source, which are not always exact repeats. Identical values can stand only once. Counter-ions that a name gives are not always drawn.

How the values were obtained:
[1] = test system: various subtypes of muscarinic receptor; conditions: cited from earlier work
[2] = target: M2 receptor from porcine atria (Sus scrofa, UniProt P06199); test: biochemical; type: binding
Chain of M2 receptor from porcine atria (P06199 whole entry): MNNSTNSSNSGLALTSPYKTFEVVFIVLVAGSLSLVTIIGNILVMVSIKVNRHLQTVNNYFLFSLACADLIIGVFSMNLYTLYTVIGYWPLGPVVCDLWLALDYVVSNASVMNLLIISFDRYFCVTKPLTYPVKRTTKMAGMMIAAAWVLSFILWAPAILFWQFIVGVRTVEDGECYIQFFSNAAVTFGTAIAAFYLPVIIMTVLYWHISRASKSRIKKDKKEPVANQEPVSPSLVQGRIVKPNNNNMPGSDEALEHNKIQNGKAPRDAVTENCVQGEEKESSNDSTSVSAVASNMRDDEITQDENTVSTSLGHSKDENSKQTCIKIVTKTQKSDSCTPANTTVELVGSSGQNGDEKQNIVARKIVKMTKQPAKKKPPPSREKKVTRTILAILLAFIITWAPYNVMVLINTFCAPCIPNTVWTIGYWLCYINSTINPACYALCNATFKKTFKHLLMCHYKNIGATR

[3] = test system: muscarinic acetylcholine M2 receptors; conditions: cited from earlier work
[4] = target: monomers of the M2 receptor; conditions: cited from earlier work
[5] = target: T1, human M2 receptor (Homo sapiens, UniProt P08172); type: binding
T1 sequence (P08172 whole entry): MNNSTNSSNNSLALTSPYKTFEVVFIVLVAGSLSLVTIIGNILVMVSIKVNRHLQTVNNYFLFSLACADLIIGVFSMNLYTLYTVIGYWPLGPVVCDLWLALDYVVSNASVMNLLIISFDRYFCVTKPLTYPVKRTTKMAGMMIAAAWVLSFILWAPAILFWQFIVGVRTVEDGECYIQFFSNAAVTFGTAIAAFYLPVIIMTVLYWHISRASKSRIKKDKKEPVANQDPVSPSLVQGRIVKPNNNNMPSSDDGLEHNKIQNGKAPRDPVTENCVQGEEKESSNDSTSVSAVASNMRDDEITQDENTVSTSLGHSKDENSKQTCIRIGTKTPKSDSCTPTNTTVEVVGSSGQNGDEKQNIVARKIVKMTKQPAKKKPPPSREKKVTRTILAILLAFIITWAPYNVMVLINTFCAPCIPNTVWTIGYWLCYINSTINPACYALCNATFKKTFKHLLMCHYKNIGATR

[6] = target: M2 receptor in sarcolemmal membranes (Sus scrofa, UniProt P06199); test: biochemical; type: binding, porcine
Chain of M2 receptor in sarcolemmal membranes (P06199 whole entry): as the sequence (P06199 whole entry) above

[7] = target: M2 receptor extracted from porcine atria (Sus scrofa, UniProt P06199); type: binding
Chain of M2 receptor extracted from porcine atria (P06199 whole entry): as above

[8] = target: T1, human M2 receptor; type: binding; remark: listed apart in the source
[9] = target: T2, M2 receptor (Sus scrofa, UniProt P06199); conditions: cited from earlier work
T2 sequence (P06199 whole entry): as above

[10] = target: T2, M2 receptor; type: binding

COC(=O)[C@@]1(OC)C[C@H]2O[C@]1(C)n1c3ccccc3c3c4c(c5c6ccccc6n2c5c31)C(=O)N(C)C4 [KT5823]
Hill coefficient [1]: greater than 1

CC[N+](CC)(CC)CCOc1cccc(OCC[N+](CC)(CC)CC)c1OCC[N+](CC)(CC)CC [gallamine, gallamine triethiodide]
pEC50 [2]: ~4.15
cooperativity factor [3]: 46
log K [4]: −4.12
nH(1) [5]: 2.41
cooperativity factor (1/α), Scheme 2 [6]: about 70
pEC50 ([6]; log K1): 7.27 and 6.55

C[N+]1(C)[C@@H]2C[C@@H](OC(=O)[C@H](CO)c3ccccc3)C[C@H]1[C@@H]1O[C@@H]12 [N-[^3H]methylscopolamine, N-[^3H]Methylscopolamine]
observed rate constant for dissociation kobsd, range of values [7]: 0.179 to 0.247 min⁻¹
observed rate constant for dissociation kobsd, range of values [8]: 0.054 to 0.059 min⁻¹
rate constant of net dissociation k (mean) [8]: 0.053 ± 0.002
rate constant of dissociation [4]: 0.036 ± 0.001

Clc1cccc(Cl)c1CO/N=C/c1cc[n+](CCC[n+]2ccc(/C=N/OCc3c(Cl)cccc3Cl)cc2)cc1 [Duo-3]
Hill coefficient [1]: greater than 1

COc1ccc2c(c1)c1c3c(c4c5ccccc5n(C)c4c1n2CC(O)CN(C)C)C(=O)NC3=O (stereo not shown) [Go7874]
Hill coefficient [1]: greater than 1

Nc1c2c(nc3ccccc13)CCCC2 [tacrine]
Hill coefficient [1]: greater than 1
Hill coefficient [9]: exceed 1

CN1[C@@H]2CC[C@H]1C[C@@H](OC(=O)C(CO)c1ccccc1)C2 (stereo partly shown) [atropine, Atropine sulfate]
Hill coefficient for inhibition of N-[3H]methylscopolamine [10]: indistinguishable from 1
